Reference: article PMC9995496, “A screen for MeCP2-TBL1 interaction inhibitors using a luminescence-based assay” (Scientific Reports, 2023)
Where a name gives a salt, the structure may show the parent alone. Square brackets hold non-standard residues; d marks the D form. Peptide text beside a SMILES is read from it. * marks the point of attachment. Sta = CC(C)C[C@H](N)[C@@H](O)CC(=O)O; Isovaleryl = CC(C)CC(=O)*

Each molecule was assayed on PRKACA-PRKAR2A interaction (SmBiT-PRKACA / LgBiT-PRKAR2A), protein kinase A. Conditions: 0.5 h, 20 µM; inhibitor.
Set-up: NanoLuc complementation counter-screen in cell extract, PRKACA with PRKAR2A, loss of luminescence, detects NanoLuc interference

SMILES | Inh (PKA) [%]
COC(=O)C1=CCCN(C)C1 [UM0053253:04, Arecoline hydrobromide] | -0.2973
CN(C)NC(=O)CCC(=O)O [UM0056235:02, Daminozide] | 2.677

Same assay, conditions: counter-screen for NanoLuc interference, 0.5 h, 20 µM, inhibitor, Inh (PKA)

Inh (PKA) [%] | SMILES
5.073 | O=C(O)Cc1ccccc1Nc1c(Cl)cccc1Cl [UM0118146:04, Diclofenac Sodium]
0.7345 | NCC1(CC(=O)O)CCCCC1 [UM0118203:03, Gabapentin]

Same assay, conditions: counter-screen for NanoLuc interference; 0.5 h, 20 µM; inhibitor

SMILES | Inh (PKA) [%]
Fc1cc(F)c2c(c1)[C@H]1C=CC[C@H]1C(c1cccnc1)N2 (mixture of isomers) [UM0142231:01, Golgicide A] | 20.05
CC(=O)N1CCN(c2ccc(OC[C@@H]3CO[C@@](Cn4ccnc4)(c4ccc(Cl)cc4Cl)O3)cc2)CC1 (racemic) [UM0118636:05, Ketoconazole] | 5.554
O[C@@H](CNC[C@H](O)[C@H]1CCc2cc(F)ccc2O1)[C@@H]1CCc2cc(F)ccc2O1 (racemic) [UM0142211:01, Nebivolol] | 3.79
O=C1NC(=O)C(=Cc2ccc(-c3ccc(F)cc3)o2)S1 (stereo in doubt) [UM0142434:01, CAY10505] | 43.9
CN(C)Cc1cccc(N/C(=C2\C(=O)Nc3cc(C(=O)N(C)C)ccc32)c2ccccc2)c1 [BIX02189] | 9.078
O=C(O)c1ccccc1O [UM0038620:02, Salicylic acid] | 0.4961
O=C(Oc1cc(S(=O)(=O)c2ccccc2)ccc1[N+](=O)[O-])c1ccc(Cl)cc1 [UM0041523:03, BTB06584] | 10.87
COc1ccc2[nH]c([S+]([O-])Cc3ncc(C)c(OC)c3C)nc2c1 (stereo not drawn) [UM0048901:05, Omeprazole] | -0.07908
Oc1c2ccccc2c2c3c(cccc13)N=N2 [UM0051399:06, SP 600125] | 23.18
Cn1c(=O)c2c(ncn2CC(O)CO)n(C)c1=O (stereo not drawn) [UM0052188:04, Dyphylline] | 1.648
CCOC(=O)c1ccc(NC2CCCCC2)c(N)c1 [UM0065946:02, Ferrostatin-1 (Fer-1)] | 10.75
CN(C)CCC=C1c2ccccc2CCc2ccccc21 [UM0118081:03, Amitriptyline HCl] | 6.05
CN(C)CCCN1c2ccccc2Sc2ccc(Cl)cc21 [UM0118114:03, Chlorpromazine HCl] | 15.72
Cc1oncc1C(=O)Nc1ccc(C(F)(F)F)cc1 [UM0118141:03, Leflunomide] | 16.35
C=C(C)[C@@H]1CC[C@]2(C(=O)O)CC[C@]3(C)[C@H](CC[C@@H]4[C@@]5(C)CC[C@H](O)C(C)(C)[C@@H]5CC[C@]43C)[C@@H]12 [UM0118149:03, Betulinic acid] | 14.84
C[C@H](CS)C(=O)N1CCC[C@H]1C(=O)O [UM0118157:03, Captopril] | 5.226
OCCN(CCO)c1nc(N2CCCCC2)c2nc(N(CCO)CCO)nc(N3CCCCC3)c2n1 [UM0118197:03, Dipyridamole] | 27.31
CC[N+](C)(C)c1cccc(O)c1 [UM0118243:03, Edrophonium (chloride)] | -0.559

SMILES | Inh (PKA) [%]
CC(C)C(=O)Nc1ccc([N+](=O)[O-])c(C(F)(F)F)c1 [UM0118278:03, Flutamide] | 16.36
CC[N+](CC)(CC)CCOc1cccc(OCC[N+](CC)(CC)CC)c1OCC[N+](CC)(CC)CC [UM0118287:03, Gallamine Triethiodide] | 0.3342
COc1ccc2c(c1)[nH]c1c(C)nccc12 [UM0118303:03, Harmine hydrochloride] | 2.69
CN(C)CCCN1c2ccccc2CCc2ccccc21 [UM0118324:03, Imipramine (hydrochloride)] | 3.952
COc1ccc2[nH]cc(CCNC(C)=O)c2c1 [UM0118349:03, Melatonin] | -1.159
COC(=O)Nc1nc2cc(C(=O)c3cccs3)ccc2[nH]1 [UM0118368:03, Nocodazole] | 9.707
C#CCN(C)Cc1ccccc1 [UM0118374:03, Pargyline (hydrochloride)] | -0.007894
C1CCc2nnnn2CC1 [UM0118375:03, Pentylenetetrazole] | -0.7973
Cc1cccc(Nc2ccccc2C(=O)O)c1C [UM0118444:03, Mefenamic Acid] | 19.56
CS(=O)(=O)Nc1ccc([N+](=O)[O-])cc1Oc1ccccc1 [UM0118531:03, Nimesulide] | 82.23
C[C@](N)(Cc1ccc(O)c(O)c1)C(=O)O [UM0118624:04, Methyldopa] | -0.4014
C#CCN(C)CCCOc1ccc(Cl)cc1Cl [UM0118650:03, Clorgyline (hydrochloride)] | 10.49
COc1cccc2c1C(=O)c1c(O)c3c(c(O)c1C2=O)C[C@@](O)(C(C)=O)C[C@@H]3O[C@H]1C[C@H](N)[C@H](O)[C@H](C)O1 [UM0118677:04, Daunorubicin HCl] | 42.12
CNCCC(Oc1ccc(C(F)(F)F)cc1)c1ccccc1 (stereo not drawn) [UM0118682:03, Fluoxetine HCl] | 5.529
CCCc1ncc(C[n+]2ccccc2C)c(N)n1 [UM0118750:03, Amprolium HCl] | -0.09679
COc1cc2nc(N3CCN(C(=O)C4COc5ccccc5O4)CC3)nc(N)c2cc1OC (stereo not drawn) [UM0118850:03, Doxazosin Mesylate] | 2.176
Cc1cc2c(C(C)C)c(O)c(O)c(C=O)c2c(O)c1-c1c(C)cc2c(C(C)C)c(O)c(O)c(C=O)c2c1O [UM0118855:03, Gossypol] | 56.08

More lines, now with the values ahead:

Inh (PKA) [%] | SMILES
1.801 | CC1COC2(CCN(c3nc(=O)c4cc(C(F)(F)F)cc([N+](=O)[O-])c4s3)CC2)O1 (racemic) [UM0141871:01, BTZ043 Racemate]
14.65 | Oc1ccc(Nc2nc(-c3ccc(Cl)cc3)cs2)cc1 [UM0013692:02, SKI II]
16.45 | COc1cc2ncnc(Nc3cccc(Cl)c3)c2cc1OC [UM0044591:06, AG-1478]
0.444 | OC[C@@H](O)[C@@H](O)[C@@H](O)CO [UM0050273:04, Ribitol]
-1.935 | OC[C@@H](O)[C@H](O)[C@@H](O)CO [UM0050273:05, Xylitol]
77.71 | CC(C)(C)c1cc(C(=O)/C(C#N)=N/Nc2cccc(Cl)c2)no1 [UM0055456:02, ESI-09]
7.48 | O=C(O)CCc1nc(-c2ccccc2)c(-c2ccccc2)o1 [UM0056108:04, Oxaprozin]
12.95 | CC(=O)Nc1ccc(NC(=S)NC(=O)c2ccc(C(C)(C)C)cc2)cc1 [UM0075879:02, Tenovin-1]
2.953 | CCN(CC)CCOC(=O)C(c1ccccc1)c1ccccc1 [UM0118069:03, Adiphenine HCl]
17.63 | COc1ccc(C(Cl)=C(c2ccc(OC)cc2)c2ccc(OC)cc2)cc1 [UM0118083:03, Chlorotrianisene]
24.16 | CCCCC(CC)CNC(=N)NC(=N)NCCCCCCNC(=N)NC(=N)NCC(CC)CCCC (stereo not drawn) [UM0118099:03, Alexidine dihydrochloride]
0.6753 | Cn1c(=O)c2[nH]cnc2n(C)c1=O [UM0118147:03, Aminophylline]
14.38 | CCCC(C(=O)OCCN(CC)CC)(c1ccccc1)c1ccccc1 [UM0118177:04, SKF 525A (hydrochloride)]
21.36 | CCN(CC)C(=S)SSC(=S)N(CC)CC [UM0118234:04, Disulfiram]
8.731 | COC(=O)Nc1nc2cc(C(=O)c3ccccc3)ccc2[nH]1 [UM0118348:03, Mebendazole]
4.028 | CNCCC=C1c2ccccc2CCc2ccccc21 [UM0118370:03, Nortriptyline (hydrochloride)]
11.2 | O=c1[nH]c2ccccc2n1C1CCN(CCCC(c2ccc(F)cc2)c2ccc(F)cc2)CC1 [UM0118378:03, Pimozide]

Inh (PKA) [%] | SMILES
-1.554 | Cc1ncc(C[n+]2csc(CCO)c2C)c(N)n1 [UM0118406:03, Thiamine HCl (Vitamin B1)]
2.527 | Nc1ccc(S(=O)(=O)Nc2ccnn2-c2ccccc2)cc1 [UM0118414:03, Sulfaphenazole]
1.702 | Nc1nc(N)c2nc(-c3ccccc3)c(N)nc2n1 [UM0118431:03, Triamterene]
8.71 | CN1CCN(CCCN2c3ccccc3Sc3ccc(C(F)(F)F)cc32)CC1 [UM0118432:03, Trifluoperazine 2HCl]
23.02 | Clc1ccccc1CN1CCc2sccc2C1 [UM0118440:03, Ticlopidine HCl]
0.5127 | CCc1nc(N)nc(N)c1-c1ccc(Cl)cc1 [UM0118442:03, Pyrimethamine]
11.82 | CN1CCN2c3ccccc3Cc3ccccc3C2C1 (stereo not drawn) [UM0118451:03, Mianserin HCl]
-0.1303 | C[N+]1(C)CCC(=C(c2ccccc2)c2ccccc2)CC1 [UM0118457:03, Diphemanil Methylsulfate]
5.004 | COc1ccc2c(c1)c(CC(=O)O)c(C)n2C(=O)c1ccc(Cl)cc1 [UM0118515:03, Indomethacin]
1.558 | CCCCOc1ccc(CC(=O)NO)cc1 [UM0118579:03, Bufexamac]
2.877 | CCCCNc1cc(C(=O)O)cc(S(N)(=O)=O)c1Oc1ccccc1 [UM0118581:03, Bumetanide]
1.204 | CC(C)CC(=O)N[C@H](C(=O)N[C@H](C(=O)N[C@@H](CC(C)C)[C@@H](O)CC(=O)N[C@@H](C)C(=O)N[C@@H](CC(C)C)[C@@H](O)CC(=O)O)C(C)C)C(C)C [UM0118622:03, Pepstatin A] (Isovaleryl-VV[Sta]A[Sta]-OH)
1.154 | Nc1c2c(nc3ccccc13)CCCC2 [UM0118625:03, Tacrine hydrochloride]
6.12 | CC(=O)Oc1cc(C(F)(F)F)ccc1C(=O)O [UM0118728:03, Triflusal]
1.197 | Cc1cc2c(cc1S(N)(=O)=O)S(=O)(=O)CCC2 [UM0118751:03, Meticrane]
-0.9742 | NS(=O)(=O)c1cc(Cl)c(Cl)c(S(N)(=O)=O)c1 [UM0118893:03, Dichlorphenamide]
